Results as given in ChEMBL document CHEMBL3886411, “Heterocyclic derivative and pharmaceutical composition comprising the same” (2015).

What follows are compounds tested against T1, P2X purinoceptor 3 (Homo sapiens, UniProt P56373) (assay: Inhibition Assay: Stably expressing cell line (C6BU-1 cell transfected with human P2X3 receptor gene (GenBank accession number Y07683) was used. The cells were seeded in a 96-well microtiter plate at a concentration of 8000 cells/well and cultured in the medium (8.3% fetal bovine serum, 8.3% horse serum, 1% antibiotic and antifungal in DMEM) for one day at 37° C. under 5% carbon dioxide atmosphere. The medium was replaced with 4 μM Fluo-3-AM solution (20 mM HEPES, 137 mM NaCl, 2.7 mM KCl, 0.9 in M MgCl2, 5.0 mM CaCl2, 5.6 D-glucose, 2.5 mM probenecid, 1.0% BSA, and 0.08% Pluronic F-127, pH 7.5) and incubated at 37° C. under 5% dioxide carbon atmosphere for one hour. The plate was washed with washing buffer (20 mM HEPES, 137 mM NaCl, 2.7 mM KCl, 0.9 mM MgCl2, 5.0 mM CaCl2, 5.6 mM D-glucose, 2.5 mM probenecid, pH 7.5), and each well was added with 40 μL of this buffer. The plate was placed in High-Throughput Screening System FDSS 3000 (Hamamatsu Photonics K.K.). Measurement of fluorescence inte).
T1 sequence (P56373 whole entry): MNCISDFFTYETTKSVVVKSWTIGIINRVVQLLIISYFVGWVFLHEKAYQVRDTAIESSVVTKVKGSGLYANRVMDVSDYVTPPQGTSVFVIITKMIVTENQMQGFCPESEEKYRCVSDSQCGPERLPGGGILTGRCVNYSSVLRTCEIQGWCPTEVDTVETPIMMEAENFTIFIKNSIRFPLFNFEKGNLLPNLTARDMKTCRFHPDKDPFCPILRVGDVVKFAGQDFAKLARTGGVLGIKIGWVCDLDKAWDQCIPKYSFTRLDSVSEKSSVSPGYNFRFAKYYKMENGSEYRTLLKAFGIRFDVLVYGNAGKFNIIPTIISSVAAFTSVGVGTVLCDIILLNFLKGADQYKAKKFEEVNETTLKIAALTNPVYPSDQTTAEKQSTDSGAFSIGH

SMILES | IC50 [nM]
CCOC(=O)c1cn(Cc2ccc(Cl)cc2)c(Nc2ccc(OC(C)C)c(F)c2)nc1=O | 108
CCOC(=O)Nc1cnc(Nc2ccc(OC(C)C)c(F)c2)n(Cc2ccc(Cl)cc2)c1=O | 33
CCOC(=O)c1cnc(Nc2ccc(OC(C)C)c(F)c2)n(Cc2ccc(Cl)cc2)c1=O | 71
